# Reference: patent publication US20190223483A1, “SENSORY MODIFIER COMPOUNDS” (CARGILL, INCORPORATED, priority 2017, published 2019)
# Entries after “also recorded” stand apart in the source; their conditions may differ.
# Tests used:
# [1] = Roundtable assessment of bitterness (scale 0 to 6); assay type: in vivo; parameters: key: 0 = none; 1 = trace/faint; 2 = slight; 3 = moderate; 4 = definite; 5 = strong; 6 = extreme
# Protocol: For other sweetness attributes, the solutions were tested by a panel of at least four individuals that are highly-trained in tasting steviol glycoside solutions. The highly-trained panelists used a roundtable methodology to assess each sweetness attribute. To test each solution, the highly-trained panelists dispensed approximately 2 mL of each solution into their own mouths by transfer pipet, dispersed the solution by moving their tongues, and recorded a value for the particular sweetness attribute being tested. Between tasting solutions, the panelists were able to cleanse their palates with water. For each sweetness attribute, the panelist agreed on a descriptive scale with relative intensities assigned for each sweetness attribute and then recorded the values for each sweetness attribute against this. For example, this roundtable assessment of sweetness linger assigned a scale of 0 to 6 with a score of 0 indicating no sweetness linger and a score of 6 indicating extreme sweetness linger. Roundtable assessment of sweetness linger assigned a scale of 0 to 6 with a score of 0 indicating no sweetness linger and a score of 6 indicating extreme sweetness linger (0=none, 1=trace, 2=slight, 3=moderate, 4=definite, 5=strong, 6=extreme). Roundtable assessment of rounded assigned a scale of 0 to 3 with a score of 0 indicating spikey and a score of 3 indicating desirable rounded (0=none, 1=mostly spikey, some rounded, 2=mostly rounded, some spikey, 3=rounded). Roundtable assessment of mouthfeel assigned a scale of 0 to 2 with a score of 0 indicating water and a score of 2 indicating syrupy (0=water, 1=sucrosey, 2=syrupy). Roundtable assessment of bitterness assigned a scale of 0 to 6 with a score of 0 indicating no bitterness and a score of 6 indicating extreme sweetness linger (0=none, 1=trace, 2=slight, 3=moderate, 4=definite, 5=strong, 6=extreme). Roundtable assessment of off tastes assigned a scale of 0 to 6 with a score of 0 indicating no bitterness and a score of 6 indicating extreme off tastes (0=none, 1=trace, 2=slight, 3=moderate, 4=definite, 5=strong, 6=extreme).
# A series of assays were carried out to characterize bitterness (0=none, 1=trace/faint, 2=slight, 3=moderate, 4=definite, 5=strong, 6=extreme) of steviol glycoside compositions with sensory modifier compound using the roundtable methodology described in Example 1. […] Solutions of steviol glycosides and sensory modifier compound were prepared at increasing ratios of sensory modifier to steviol glycoside by weight. The steviol glycosides were RebA (4 glycoside groups), RebD (5 glycoside groups), RebM (6 glycoside groups), and OPS1-5(7 glycoside groups) and the sensory modifier compound was monocaffeoylquinic and dicaffeoylquinic acids prepared from yerba mate. The concentration of steviol glycosides was 700 ppm in each solution. The solutions were tested for bitterness.
# [2] = Roundtable assessment of astringency; assay type: in vivo; parameters: key: 0 = none; 1 = trace/faint; 2 = slight; 3 = moderate; 4 = definite; 5 = strong; 6 = extreme
# Protocol: Roundtable assessment of botanical notes assigned a scale of 0 to 5 with a score of 0 indicating no botanical notes and a score of 5 indicating strong (0=none, 1=trace, 2=slight, 3=moderate, 4=definite, 5=strong).
# Solutions of steviol glycosides and sensory modifier compound were prepared at increasing ratios of sensory modifier to steviol glycoside by weight. […] The concentration of steviol glycosides was 700 ppm in each solution. The solutions were tested for astringency.
# [3] = RebM 700 ppm + cichoric acid (tartaric backbone) 772 ppm
# [4] = RebM 700 ppm + cichoric acid (tartaric backbone) […]
# [5] = RebM 700 ppm + rosmarinic acid 195 ppm
# [6] = RebM 700 ppm + rosmarinic acid 391 ppm
# [7] = steviol glycoside 700 ppm + yerba mate mono/dicaffeoylquinic acids 236 ppm
# [8] = steviol glycoside 700 ppm + yerba mate mono/dicaffeoylquinic acids 472 ppm
# [9] = steviol glycoside 700 ppm + yerba mate mono/dicaffeoylquinic acids 708 ppm
# [10] = steviol glycoside 700 ppm, sensory modifier 0 ppm
# [11] = steviol glycoside 700 ppm + yerba mate mono/dicaffeoylquinic acids 270 ppm
# [12] = steviol glycoside 700 ppm + yerba mate mono/dicaffeoylquinic acids 540 ppm
# [13] = steviol glycoside 700 ppm + yerba mate mono/dicaffeoylquinic acids 810 ppm
# [14] = steviol glycoside 700 ppm + yerba mate mono/dicaffeoylquinic acids 630 ppm
# [15] = steviol glycoside 700 ppm + yerba mate mono/dicaffeoylquinic acids 946 ppm
# [16] = steviol glycoside 700 ppm + yerba mate mono/dicaffeoylquinic acids […]
structure (smiles),measurement,setting,value
"C=C1C[C@@]23CC[C@H]4[C@@](C)(CCC[C@@]4(C)C(=O)O[C@@H]4O[C@H](CO)[C@@H](O)[C@H](O[C@@H]5O[C@H](CO)[C@@H](O)[C@H](O)[C@H]5O)[C@H]4O[C@@H]4O[C@H](CO)[C@@H](O)[C@H](O)[C@H]4O)[C@@H]2CC[C@]1(O[C@@H]1O[C@H](CO)[C@@H](O)[C@H](O[C@@H]2O[C@H](CO)[C@@H](O)[C@H](O)[C@H]2O)[C@H]1O[C@@H]1O[C@H](CO)[C@@H](O)[C@H](O)[C@H]1O)C3 [RebM, Rebaudioside M]",Bitterness,[1]; [3],0
same,Bitterness,[1]; [4],0
same,Bitterness,[1]; [5],0
same,Bitterness,[1]; [6],0
same,Bitterness,"[1]; RebM 700 ppm, about 200 ppm sensory modifier and above",not perceptible
same,Sweetness linger,[1]; Table 16: RebM 700 ppm + yerba mate mono/dicaffeoylquinic acids 236 ppm,0
same,Sweetness linger,[1]; Table 16: RebM 700 ppm + yerba mate mono/dicaffeoylquinic acids 300 ppm,0
same,Sweetness linger,[1]; Table 16: RebM 700 ppm + yerba mate mono/dicaffeoylquinic acids 400 ppm,0
same,Sweetness linger,[1]; Table 16: RebM 700 ppm + yerba mate mono/dicaffeoylquinic acids 472 ppm,0
same,Sweetness linger,[1]; Table 16: RebM 700 ppm + yerba mate mono/dicaffeoylquinic acids 500 ppm,0
same,Sweetness linger,[1]; Table 16: RebM 700 ppm + yerba mate mono/dicaffeoylquinic acids 600 ppm,0
same,Sweetness linger,[1]; Table 16: RebM 700 ppm + yerba mate mono/dicaffeoylquinic acids 700 ppm,0
same,Sweetness linger,[1]; Table 16: RebM 700 ppm + yerba mate mono/dicaffeoylquinic acids 708 ppm,0
same,Sweetness linger,[1]; Table 16: RebM 700 ppm + yerba mate mono/dicaffeoylquinic acids 800 ppm,0
same,Sweetness linger,"[1]; Table 16: RebM 700 ppm, sensory modifier 0 ppm",5
same,Bitterness,"[1]; quinic, tartaric or 3-(3,4-dihydroxyphenyl)lactic acid backbone modifier above 200 ppm",none
same,Bitterness,[1]; [7],0
same,Bitterness,[1]; [8],0
same,Bitterness,[1]; [9],0
same,Bitterness,[1]; [10],5
same,Astringency,[2]; RebM 700 ppm + cichoric acid (tartaric backbone) 514 ppm,0
same,Astringency,[2]; [3],4
same,Astringency,[2]; [4],0
same,Astringency,[2]; [5],0
same,Astringency,[2]; [6],0
same,Astringency,[2]; RebM 700 ppm + rosmarinic acid 586 ppm,0
same,Astringency,"[2]; RebM 700 ppm, 0 ppm to 700 ppm of quinic backbone modifier",no perceptible astringency; also recorded: imperceptible
same,Astringency,[2]; [7],0
same,Astringency,[2]; steviol glycoside 700 ppm + yerba mate mono/dicaffeoylquinic acids 300 ppm,Not observed
same,Astringency,[2]; steviol glycoside 700 ppm + yerba mate mono/dicaffeoylquinic acids 400 ppm,Not observed
same,Astringency,[2]; [8],0
same,Astringency,[2]; steviol glycoside 700 ppm + yerba mate mono/dicaffeoylquinic acids 500 ppm,0
same,Astringency,[2]; steviol glycoside 700 ppm + yerba mate mono/dicaffeoylquinic acids 600 ppm,Not observed
same,Astringency,[2]; steviol glycoside 700 ppm + yerba mate mono/dicaffeoylquinic acids 700 ppm,Not observed
same,Astringency,[2]; [9],0
same,Astringency,[2]; steviol glycoside 700 ppm + yerba mate mono/dicaffeoylquinic acids 800 ppm,Not observed
same,Astringency,[2]; [10],0
"C=C1C[C@@]23CC[C@H]4[C@@](C)(CCC[C@@]4(C)C(=O)O[C@@H]4O[C@H](CO)[C@@H](O)[C@H](O)[C@H]4O[C@@H]4O[C@H](CO)[C@@H](O)[C@H](O)[C@H]4O)[C@@H]2CC[C@]1(O[C@@H]1O[C@H](CO)[C@@H](O)[C@H](O[C@@H]2O[C@H](CO)[C@@H](O)[C@H](O)[C@H]2O)[C@H]1O[C@@H]1O[C@H](CO)[C@@H](O)[C@H](O)[C@H]1O)C3 [RebD, Rebaudioside D]",Bitterness,[1]; [11],0
same,Bitterness,[1]; [12],0
same,Bitterness,[1]; [13],0
same,Bitterness,[1]; [10],0
same,Astringency,[2]; [11],2
same,Astringency,[2]; [12],1
same,Astringency,[2]; [13],2
same,Astringency,[2]; [10],Not observed
"C=C1C[C@@]23CC[C@H]4[C@@](C)(CCC[C@@]4(C)C(=O)O[C@@H]4O[C@H](CO)[C@@H](O)[C@H](O)[C@H]4O)[C@@H]2CC[C@]1(O[C@@H]1O[C@H](CO)[C@@H](O)[C@H](O[C@@H]2O[C@H](CO)[C@@H](O)[C@H](O)[C@H]2O)[C@H]1O[C@@H]1O[C@H](CO)[C@@H](O)[C@H](O)[C@H]1O)C3 [RebA, Rebaudioside A]",bitterness score,"[1]; RebA 700 ppm, higher concentrations of sensory modifier",3
same,Bitterness,[1]; [14],3
same,Bitterness,[1]; [15],3
same,Bitterness,[1]; [16],5
same,Bitterness,[1]; [10],6
same,Astringency,[2]; [14],1
same,Astringency,[2]; [15],3
same,Astringency,[2]; [16],Not observed
same,Astringency,[2]; [10],Not observed
